This passage reports LC retention time results from the RepoRT retention time repository.

The data set in a line: HILIC, Waters Atlantis Premier BEH Z-HILIC, 100 × 2.1 mm, 1.7 µm, 40 °C, 0.16 mL/min, estimated dead time 1.4 min; A: water + 20 mM ammonium carbonate + 5 µM medronic acid; B: 10% water + 90% acetonitrile + 2 mM ammonium carbonate + 0.5 µM medronic acid; gradient (min/%B) 0/97 18/55 18.1/20 21.5/20 22/97 23.5/97 25.5/97. As to conditions: stereoisomer not certain.

For `NC(=O)CCC(N)C(=O)O` (configuration not stated) [Glutamine], the LC retention time is 10.6 min.

Consider `CC(=O)NC1C(OP(=O)(O)OP(=O)(O)OCC2OC(n3ccc(=O)[nH]c3=O)C(O)C2O)OC(CO)C(O)C1O` (configuration not stated) [UDP-GlcNAc], for which the LC retention time was 10.1 min.

`CC(C)CC(N)C(=O)O` (configuration not stated) [Leucine]: the LC retention time is 6.36 min.

Consider `O=P(O)(O)OCC1OC(O)C(O)C(O)C1O` (configuration not stated) [Glucose-6-phosphate], for which the LC retention time is 12.5 min.

Take `NC(=O)c1ccc[n+](C2OC(COP(=O)(O)OP(=O)(O)OCC3OC(n4cnc5c(N)ncnc54)C(OP(=O)(O)O)C3O)C(O)C2O)c1` (configuration not stated) [NADP]: the LC retention time is 13.3 min.

Regarding `O=C(O)CC(O)(CC(=O)O)C(=O)O` [Citric acid], the LC retention time is 13.7 min.

In the case of `C=C(OP(=O)(O)O)C(=O)O` [PEP], the LC retention time is 13.4 min.

Turning to `O=C(CO)COP(=O)(O)O` [Triose phosphate], the LC retention time was 10.4 min.

Regarding `Nc1nc2c(ncn2C2OC(COP(=O)(O)OP(=O)(O)OP(=O)(O)O)C(O)C2O)c(=O)[nH]1` (configuration not stated) [GTP], the LC retention time was 15.7 min.

In the case of `Nc1ncnc2c1ncn2C1OC(CO)C(O)C1O` (configuration not stated) [Adenosine], the LC retention time was 4.45 min.

For the compound `CC(C)(COP(=O)(O)OP(=O)(O)OCC1OC(n2cnc3c(N)ncnc32)C(O)C1OP(=O)(O)O)C(O)C(=O)NCCC(=O)NCCS` (configuration not stated) [CoenzymeA], the LC retention time is 12 min.

As to `O=C(O)C(CO)OP(=O)(O)O` (configuration not stated) [Phosphoglyceric acid A], the LC retention time was 12.6 min.

On to `O=P(O)(O)OCC1OC(O)(COP(=O)(O)O)C(O)C1O` (configuration not stated) [Fructose-1,6-bisphosphate], for which the LC retention time is 15.5 min.

Consider `O=C(CO)C(O)C(O)C(O)COP(=O)(O)O` (configuration not stated) [Fructose 6-phosphate], for which the LC retention time is 11.5 min.

In the case of `NC(=O)C1=CN(C2OC(COP(=O)(O)OP(=O)(O)OCC3OC(n4cnc5c(N)ncnc54)C(O)C3O)C(O)C2O)C=CC1` (configuration not stated) [NADH], the LC retention time was 8.9 min.

On to `Cc1cc2nc3c(=O)[nH]c(=O)nc-3n(CC(O)C(O)C(O)COP(=O)(O)OP(=O)(O)OCC3OC(n4cnc5c(N)ncnc54)C(O)C3O)c2cc1C` (configuration not stated) [FAD], for which the LC retention time was 7.63 min.

As for `NC(=O)c1ccc[n+](C2OC(COP(=O)(O)OP(=O)(O)OCC3OC(n4cnc5c(N)ncnc54)C(O)C3O)C(O)C2O)c1` (configuration not stated) [NAD], the LC retention time was 10.5 min.

Regarding `CCC(=O)OC(CC(=O)[O-])C[N+](C)(C)C` (configuration not stated) [carnitine-C3], the LC retention time was 6.89 min.

In the case of `C[N+](C)(C)CC(O)CC(=O)[O-]` (configuration not stated) [Carnitine], the LC retention time is 10.1 min.

Consider `O=P(O)(O)OCC(O)CO` (configuration not stated) [Glycerol-3-phosphate], for which the LC retention time is 10.6 min.

Consider `O=C(O)CCC(=O)C(=O)O` [2-Oxoglutaric acid], for which the LC retention time is 9.15 min.

Regarding `CCC(C)C(N)C(=O)O` (configuration not stated) [Isoleucine], the LC retention time is 6.73 min.

Take `CC(=O)SCCNC(=O)CCNC(=O)C(O)C(C)(C)COP(=O)(O)OP(=O)(O)OCC1OC(n2cnc3c(N)ncnc32)C(O)C1OP(=O)(O)O` (configuration not stated) [Acetyl-CoA]: the LC retention time is 10.4 min.

Regarding `O=C(O)CCC(=O)O` [Succinic Acid], the LC retention time was 9.71 min.

Turning to `NC(=O)C1=CN(C2OC(COP(=O)(O)OP(=O)(O)OCC3OC(n4cnc5c(N)ncnc54)C(OP(=O)(O)O)C3O)C(O)C2O)C=CC1` (configuration not stated) [NADPH], the LC retention time is 13.8 min.

As for `O=C(O)CCC(O)C(=O)O` (configuration not stated) [2-hydroxy glutaric acid], the LC retention time is 9.7 min.

As to `CC(O)C(=O)O` (configuration not stated) [Lactic Acid], the LC retention time is 3.29 min.

For the compound `NCCCCC(N)C(=O)O` (configuration not stated) [Lysine], the LC retention time was 19.4 min.

On to `NC(CCC(=O)O)C(=O)O` (configuration not stated) [Glutamic acid], for which the LC retention time was 9.93 min.

On to `O=C(O)CCCCC1SCC2NC(=O)NC21` (configuration not stated) [Biotin], for which the LC retention time is 4.62 min.

In the case of `OCC1OC(O)C(O)C(O)C1O` (configuration not stated) [Hexose], the LC retention time is 7.87 min.

Turning to `Nc1ncnc2c1ncn2C1OC(COP(=O)(O)OP(=O)(O)O)C(O)C1O` (configuration not stated) [ADP], the LC retention time was 11.6 min.

In the case of `O=C1CC(C(=O)O)NC(=O)N1` (configuration not stated) [dihydroorotic acid], the LC retention time was 4.6 min.

`NC(N)=NCCCC(N)C(=O)O` (configuration not stated) [Arginine]: the LC retention time is 19.2 min.

As to `Nc1ncnc2c1ncn2C1OC(COP(=O)(O)O)C(O)C1O` (configuration not stated) [AMP], the LC retention time was 9.68 min.

Take `Nc1ncnc2c1ncn2C1OC(COP(=O)(O)OP(=O)(O)OP(=O)(O)O)C(O)C1O` (configuration not stated) [ATP]: the LC retention time was 13.3 min.

On to `O=C(O)CC(C(=O)O)C(O)C(=O)O` (configuration not stated) [Isocitric acid], for which the LC retention time is 13.6 min.
